Converted amounts (≈) assume the structure as drawn.
Key:
E. faecalis ATCC 29121 = assay: microbe, parasite or virus in culture
Procedure: (§1) The L-peptides identified from five different phage display libraries were catalogued as described previously and selected sequences were synthesized in D-enantiomeric form by SPPS for further investigation in several biological assays.
(§2) MICs were determined according to a 96-well microdilution protocol outlined by the Clinical and Laboratory Standard Institute (CLSI) guideline with modifications for peptide antibiotics reported by Wiegand et al.^35 Two-fold serial peptide dilutions were performed to go from 2560 μg/ml to 5 μg/ml in0.2% BSA and 0.01% acetic acid buffer in 96-well polypropylene plates (COSTAR, #3879). Dilution of bacterial suspensions (1:200) of different bacterial strains that were grown until 0.5 McFarland standard were prepared to obtain a final inoculum concentration of 8×10^5 CFU/ml in Mueller-Hinton broth.

E. coli ATCC 25992 = assay: microbe, parasite or virus in culture
Procedure: as §1, §2

S. aureus ATCC 6538 = assay: microbe, parasite or virus in culture
Procedure: as §1, §2

[1] = test system: low level vancomycin resistant E. faecium (vanB) ATCC 51299; assay: microbe, parasite or virus in culture
Procedure: as §1, §2

[2] = test system: high level vancomycin resistant E. faecium (vanA) ATCC 51559; assay: microbe, parasite or virus in culture
Procedure: as §1, §2

B. subtilis ATCC 6633 = assay: microbe, parasite or virus in culture
Procedure: as §1, §2

[3] = test system: Methicillin-resistant S. aureus (MRSA) ATCC 43300; assay: microbe, parasite or virus in culture
Procedure: as §1, §2

[4] = relative to D-Ala-D-Ala precursor; cited from earlier work
HeLa cells = assay: Mammalian cytotoxicity (MTT) assay; conditions: 24 h, b121: concentrations up to 256 μg/ml
Procedure: Cervical cancer cells (HeLa) were cultured in Dulbecco's Modified Eagle's medium (DMEM) (Invitrogen #11995-073) supplemented with 10% bovine calf serum at 37° C., 5% CO2, and seeded (5×10^3 cells/well) in 96-well plate flat-bottomed plate for 24 h before the assay. […] After washing the cells with PBS, the cells were subjected to the standard yellow tetrazolium (3-(4,5-dimethylthiazol-2-yl)-2,5-diphenyltetrazolium bromide (MTT) assay protocol at final concentration of 0.5 mg/ml for 4 h in a humidified 5% CO2 atmosphere at 37° C. MTT solution was then aspirated, and the purple formazan crystals were resuspended in DMSO by incubation for 5 min at 37° C. The absorbance at 540 nm was then read using a microplate reader. Viability control (100% viability) was assigned to samples with only HeLa cells and DMEM media, 0% viability was assigned to samples with 1% added Triton-X-100 and no peptide. Experiments were performed as triplicates at different days.

[5] = read-out: Kd of vancomycin:D-Ala-D-Ala complex; cited from earlier work
[6] = test system: human red blood cells (hRBC); assay: Hemolytic activity; assay type: cell-based; conditions: 0.25% hRBC, 37° C., 1 h
Procedure: Fresh red human blood cells (hRBC) were washed and centrifuged at 3000 rpm for 5 min at 4° C. with PBS until a clear solution was obtained. Two-fold serial dilutions of each peptide in PBS from 0.5 μg/ml to 256 μg/ml were incubated with 0.25% (v/v) hRBC suspension at 37° C. for 1 h, and then centrifuged for 5 min at 3500 rpm in 96-well plate. 50 μl of the supernatant from each well was diluted with 50 μl pure water, and the OD at 415 nm was measured using microplate reader. Melittin at the same concentrations (200 μg/ml for complete lysis) was used as a positive control. Percent hemolysis was calculated according to the equation: […]
where complete hemolysis was defined as the average hemolysis of all wells containing a final concentration of melittin ranging from 50 to 400 μg/ml. Experiments were performed as triplicates at different days.

Row | SMILES | MIC (E. faecalis ATCC 29121; Enterococcus faecalis, ATCC29121, read-out: MIC E. faecalis) [µg/mL] | MIC E. faecalis (E. faecalis ATCC 29121; Table 6, E. faecalis ATCC29121) [µg/mL] | MIC (E. coli ATCC 25992; Escherichia coli, ATCC25992, read-out: MIC E. coli) [µg/mL] | MIC E. coli (E. coli ATCC 25992; Table 6, E. Coli ATCC25992) [µg/mL] | MIC (S. aureus ATCC 6538; Staphylococcus aureus, ATCC6538, read-out: MIC S. aureus) [µg/mL] | MIC S. aureus (S. aureus ATCC 6538; Table 6, S. aureus ATCC6538) [µg/mL] | MIC ([1]; Enterococcus faecium, ATCC51299 / VRE, read-out: MIC VRE (vanB)) [µg/mL] | MIC VRE (vanB) ([1]; Table 6, low level vancomycin resistant E. faecium ATCC51299) [µg/mL] | activity against vanA / high-level vancomycin-resistant strain [2] | MIC ([2]; Enterococcus faecium, ATCC51559 / VRE, read-out: MIC VRE (vanA)) [µg/mL] | MIC VRE (vanA) ([2]; Table 6, high level vancomycin resistant E. faecium ATCC51559) [µg/mL] | MIC (B. subtilis ATCC 6633; Bacillus subtilis, ATCC6633, read-out: MIC B. subtilis) [µg/mL] | MIC B. subtilis (B. subtilis ATCC 6633; Table 6, B. subtilis ATCC6633) [µg/mL] | MIC ([3]; Staphylococcus aureus, read-out: MIC MRSA) [µg/mL] | MIC MRSA ([3]; Table 6, MRSA ATCC43300) [µg/mL] | reduction of binding affinity on D-alanine to D-lactate substitution [4] [fold] | cytotoxicity on HeLa cells (HeLa cells) | Kd [5] [nM] | percentage hemolysis of hRBCs [6] [%]
1 | CN[C@H](CC(C)C)C(=O)N[C@H]1C(=O)N[C@@H](CC(N)=O)C(=O)N[C@H]2C(=O)N[C@H]3C(=O)N[C@H](C(=O)N[C@H](C(=O)O)c4cc(O)cc(O)c4-c4cc3ccc4O)[C@H](O)c3ccc(c(Cl)c3)Oc3cc2cc(c3O[C@@H]2O[C@H](CO)[C@@H](O)[C@H](O)[C@H]2O[C@H]2C[C@](C)(N)[C@H](O)[C@H](C)O2)Oc2ccc(cc2Cl)[C@H]1O [P1, Vancomycin, reference compound] | 1 (≈ 0.69 µM) | 1 (≈ 0.69 µM) | > 256 | >256 | 0.5 (≈ 0.345 µM) | 0.5 (≈ 0.345 µM) | 32 (≈ 22.1 µM) | 32 (≈ 22.1 µM) | no activity | > 256 | >256 | 0.5 (≈ 0.345 µM) | 0.5 (≈ 0.345 µM) | 0.5 (≈ 0.345 µM) | 0.5 (≈ 0.345 µM) | ~1000 | non-toxic | ~1000 | 0
2 | CC[C@H](C)[C@H](NC(=O)CN)C(=O)NCC(=O)N[C@@H](C)C(=O)N[C@H](C(=O)N[C@@H](CC(C)C)C(=O)N[C@@H](CCCCN)C(=O)N[C@H](C(=O)N[C@@H](CC(C)C)C(=O)N[C@H](C(=O)N[C@H](C(=O)NCC(=O)N[C@@H](CC(C)C)C(=O)N1CCC[C@H]1C(=O)N[C@@H](C)C(=O)N[C@@H](CC(C)C)C(=O)N[C@H](C(=O)N[C@@H](CO)C(=O)N[C@@H](Cc1c[nH]c2ccccc12)C(=O)N[C@H](C(=O)N[C@@H](CCCCN)C(=O)N[C@@H](CCCNC(=N)N)C(=O)N[C@@H](CCCCN)C(=O)N[C@@H](CCCNC(=N)N)C(=O)N[C@@H](CCC(N)=O)C(=O)N[C@@H](CCC(N)=O)C(N)=O)[C@@H](C)CC)[C@@H](C)CC)[C@@H](C)O)[C@@H](C)O)C(C)C)C(C)C [P2, Melittin] |  |  |  |  |  |  |  |  |  |  |  |  |  |  |  |  | toxic |  | 
